How the values were obtained:
Assay in all cases: Post-emergence herbicidal activity test (stem and leaf spray, pot culture)
Type in all cases: in vivo
Conditions in all cases: 3 weeks after spraying
Abutilon theophrasti = test system: Abutilon theophrasti
Protocol: (§1) The weeds were cultivated in a 180 mm×140 mm plastic nutrient pot by a pot-culture method, placed in an enamel tray, and the plastic nutrient pots were filled with surface soil (⅘ of a depth) collected from a farmland and air-dried and sieved, and a soil humidity was controlled at 20% in the initial stage. Weed seeds with plump and uniform grains were selected, soaked in warm water at 25° C. for 6 h, and germinated in a biochemical incubator (dark) at 28° C. The freshly exposed weed seeds were evenly placed on the soil surface, and then covered with 0.5 cm to 1 cm of soil according to the size of the seeds. The weeds are cultivated in a controlled sunlight greenhouse at 20° C. to 30° C., under natural light, and a relative humidity of 57% to 72%. The soil was loam, including 1.63% of organic matters, with a pH value of 7, 84.3 mg/kg of alkaline nitrogen, 38.5 mg/kg of available phosphorus, and 82.1 mg/kg of available potassium.
(§2) Each treatment was repeated 2 times, each treatment included 12 pots, and 20 weed seeds were sown in each pot. Pesticide was applied in the test for 1 time in total. When the weeds grew to 1.5- to 2-leaf stage, thinning was conducted, with 10 weeds in each pot, and 30 weeds were kept in each treatment.
(§3) The cultivated weeds were placed on trays with an area of 0.1 m^2, and stems and leaves were sprayed with a sprayer. After applying a pesticide, the pesticide applied weeds were moved into a greenhouse for routine cultivation.
(§4) 2 weeks after sowing, the test plants were treated at the 2- to 3-leaf stage: the compounds of the present disclosure for testing were dissolved in acetone separately, and added with Tween 80, an emulsifiable oil of 1.5 liters/ha methyl oleate was added as a synergist, and an obtained mixture was diluted with certain water to a certain concentration solution. The solution was sprayed onto the plants using a spray tower. After spraying, the weeds were cultivated in the greenhouse for 3 weeks, and the experimental effects on the weeds were counted. The effective concentrations of the compounds were 10 g/mu, 5 g/mu, and 2.5 g/mu, the experiment was repeated three times, and an average result was taken.
(§5) The activity level criteria for plant destruction (i.e. growth control rate) are as follows: • Grade 5: the growth control rate is greater than or equal to 85%; • Grade 4: the growth control rate is greater than or equal to 60% and less than 85%; • Grade 3: the growth control rate is greater than or equal to 40% and less than 60%; • Grade 2: the growth control rate is greater than or equal to 20% and less than 40%; • Grade 1: the growth control rate is greater than or equal to 5% and less than 20%; and • Grade 0: the growth control rate is less than 5%.
(§6) The growth control rate is a fresh weight control rate.

Echinochloa crusgalli = test system: Echinochloa crusgalli
Protocol: as §1, §2, §3, §4, §5, §6

Amaranthus retroflexus = test system: Amaranthus retroflexus
Protocol: as §1, §2, §3, §4, §5, §6

Portulaca oleracea = test system: Portulaca oleracea
Protocol: as §1, §2, §3, §4, §5, §6

Setaria viridis = test system: Setaria viridis
Protocol: as §1, §2, §3, §4, §5, §6

Trifoliumre pensL. = test system: Trifoliumre pensL.
Protocol: (1) Post-Emergence Stem and Leaf Spray Treatment: The weeds were cultivated in a 180 mm×140 mm plastic nutrient pot by a pot-culture method, placed in an enamel tray, and the plastic nutrient pots were filled with surface soil (⅘ of a depth) collected from a farmland and air-dried and sieved, and a soil humidity was controlled at 20% in the initial stage. Weed seeds with plump and uniform grains were selected, soaked in warm water at 25° C. for 6 h, and germinated in a biochemical incubator (dark) at 28° C. The freshly exposed weed seeds were evenly placed on the soil surface, and then covered with 0.5 cm to 1 cm of soil according to the size of the seeds. The weeds are cultivated in a controlled sunlight greenhouse at 20° C. to 30° C., under natural light, and a relative humidity of 57% to 72%. The soil was loam, including 1.63% of organic matters, with a pH value of 7, 84.3 mg/kg of alkaline nitrogen, 38.5 mg/kg of available phosphorus, and 82.1 mg/kg of available potassium. Each treatment was repeated 2 times, each treatment included 12 pots, and 20 weed seeds were sown in each pot. Pesticide was applied in the test for 1 time in total. When the weeds grew to 1.5- to 2-leaf stage, thinning was conducted, with 10 weeds in each pot, and 30 weeds were kept in each treatment. The cultivated weeds were placed on trays with an area of 0.1 m^2, and stems and leaves were sprayed with a sprayer. After applying a pesticide, the pesticide applied weeds were moved into a greenhouse for routine cultivation. 2 weeks after sowing, the test plants were treated at the 2- to 3-leaf stage: the compounds of the present disclosure for testing were dissolved in acetone separately, and added with Tween 80, an emulsifiable oil of 1.5 liters/ha methyl oleate was added as a synergist, and an obtained mixture was diluted with certain water to a certain concentration solution. The solution was sprayed onto the plants using a spray tower. After spraying, the weeds were cultivated in the greenhouse for 3 weeks, and the experimental effects on the weeds were counted. The effective concentrations of the compounds were 10 g/mu, 5 g/mu, and 2.5 g/mu, the experiment was repeated three times, and an average result was taken.

Structure (SMILES) | Post-emergence herbicidal activity, A. theophrasti (grade) (Abutilon theophrasti; dosage 2.5 g/mu) | Post-emergence herbicidal activity, A. theophrasti (grade) (Abutilon theophrasti; dosage 5 g/mu) | Post-emergence herbicidal activity, A. theophrasti (grade) (Abutilon theophrasti; dosage 10 g/mu) | Post-emergence herbicidal activity, E. crusgalli (grade) (Echinochloa crusgalli; dosage 2.5 g/mu) | Post-emergence herbicidal activity, E. crusgalli (grade) (Echinochloa crusgalli; dosage 5 g/mu) | Post-emergence herbicidal activity, E. crusgalli (grade) (Echinochloa crusgalli; dosage 10 g/mu) | Post-emergence herbicidal activity, A. retroflexus (grade) (Amaranthus retroflexus; dosage 2.5 g/mu) | Post-emergence herbicidal activity, A. retroflexus (grade) (Amaranthus retroflexus; dosage 5 g/mu) | Post-emergence herbicidal activity, A. retroflexus (grade) (Amaranthus retroflexus; dosage 10 g/mu) | Post-emergence herbicidal activity, P. oleracea (grade) (Portulaca oleracea; dosage 2.5 g/mu) | Post-emergence herbicidal activity, P. oleracea (grade) (Portulaca oleracea; dosage 5 g/mu) | Post-emergence herbicidal activity, P. oleracea (grade) (Portulaca oleracea; dosage 10 g/mu) | Post-emergence herbicidal activity, S. viridis (grade) (Setaria viridis; dosage 2.5 g/mu) | Post-emergence herbicidal activity, S. viridis (grade) (Setaria viridis; dosage 5 g/mu) | Post-emergence herbicidal activity, S. viridis (grade) (Setaria viridis; dosage 10 g/mu) | Post-emergence herbicidal activity, Trifoliumre pensL. (grade) (Trifoliumre pensL.; dosage 2.5 g/mu) | Post-emergence herbicidal activity, Trifoliumre pensL. (grade) (Trifoliumre pensL.; dosage 5 g/mu) | Post-emergence herbicidal activity, Trifoliumre pensL. (grade) (Trifoliumre pensL.; dosage 10 g/mu)
O=C1C2=C(CCCC2)C(=O)N1c1cc(OCc2nc(-c3ccc(F)cc3F)no2)c(Cl)cc1F [Compound A6] | 5 (Grade 5: the growth control rate is greater than or equal to 85%) | 5 (Grade 5: the growth control rate is greater than or equal to 85%) | 5 (Grade 5: the growth control rate is greater than or equal to 85%) | 1 (Grade 1: the growth control rate is greater than or equal to 5% and less than 20%) | 2 (Grade 2: the growth control rate is greater than or equal to 20% and less than 40%) | 3 (Grade 3: the growth control rate is greater than or equal to 40% and less than 60%) | 5 (Grade 5: the growth control rate is greater than or equal to 85%) | 5 (Grade 5: the growth control rate is greater than or equal to 85%) | 5 (Grade 5: the growth control rate is greater than or equal to 85%) | 4 (Grade 4: the growth control rate is greater than or equal to 60% and less than 85%) | 5 (Grade 5: the growth control rate is greater than or equal to 85%) | 5 (Grade 5: the growth control rate is greater than or equal to 85%) | 2 (Grade 2: the growth control rate is greater than or equal to 20% and less than 40%) | 3 (Grade 3: the growth control rate is greater than or equal to 40% and less than 60%) | 4 (Grade 4: the growth control rate is greater than or equal to 60% and less than 85%) | 4 (Grade 4: the growth control rate is greater than or equal to 60% and less than 85%) | 5 (Grade 5: the growth control rate is greater than or equal to 85%) | 5 (Grade 5: the growth control rate is greater than or equal to 85%)
Cc1cc(F)ccc1-c1noc(COc2cc(N3C(=O)C4=C(CCCC4)C3=O)c(F)cc2Cl)n1 [Compound A23] | 5 (Grade 5: the growth control rate is greater than or equal to 85%) | 5 (Grade 5: the growth control rate is greater than or equal to 85%) | 5 (Grade 5: the growth control rate is greater than or equal to 85%) | 1 (Grade 1: the growth control rate is greater than or equal to 5% and less than 20%) | 2 (Grade 2: the growth control rate is greater than or equal to 20% and less than 40%) | 3 (Grade 3: the growth control rate is greater than or equal to 40% and less than 60%) | 5 (Grade 5: the growth control rate is greater than or equal to 85%) | 5 (Grade 5: the growth control rate is greater than or equal to 85%) | 5 (Grade 5: the growth control rate is greater than or equal to 85%) | 4 (Grade 4: the growth control rate is greater than or equal to 60% and less than 85%) | 5 (Grade 5: the growth control rate is greater than or equal to 85%) | 5 (Grade 5: the growth control rate is greater than or equal to 85%) | 2 (Grade 2: the growth control rate is greater than or equal to 20% and less than 40%) | 3 (Grade 3: the growth control rate is greater than or equal to 40% and less than 60%) | 4 (Grade 4: the growth control rate is greater than or equal to 60% and less than 85%) | 4 (Grade 4: the growth control rate is greater than or equal to 60% and less than 85%) | 5 (Grade 5: the growth control rate is greater than or equal to 85%) | 5 (Grade 5: the growth control rate is greater than or equal to 85%)
O=C1C2=C(CCCC2)C(=O)N1c1cc(OCc2nc(-c3cc(F)ccc3Cl)no2)c(Cl)cc1F [Compound A21] | 5 (Grade 5: the growth control rate is greater than or equal to 85%) | 5 (Grade 5: the growth control rate is greater than or equal to 85%) | 5 (Grade 5: the growth control rate is greater than or equal to 85%) | 1 (Grade 1: the growth control rate is greater than or equal to 5% and less than 20%) | 2 (Grade 2: the growth control rate is greater than or equal to 20% and less than 40%) | 3 (Grade 3: the growth control rate is greater than or equal to 40% and less than 60%) | 5 (Grade 5: the growth control rate is greater than or equal to 85%) | 5 (Grade 5: the growth control rate is greater than or equal to 85%) | 5 (Grade 5: the growth control rate is greater than or equal to 85%) | 4 (Grade 4: the growth control rate is greater than or equal to 60% and less than 85%) | 5 (Grade 5: the growth control rate is greater than or equal to 85%) | 5 (Grade 5: the growth control rate is greater than or equal to 85%) | 2 (Grade 2: the growth control rate is greater than or equal to 20% and less than 40%) | 3 (Grade 3: the growth control rate is greater than or equal to 40% and less than 60%) | 4 (Grade 4: the growth control rate is greater than or equal to 60% and less than 85%) | 4 (Grade 4: the growth control rate is greater than or equal to 60% and less than 85%) | 5 (Grade 5: the growth control rate is greater than or equal to 85%) | 5 (Grade 5: the growth control rate is greater than or equal to 85%)
